Reference: patent US9688699B2, “3-(pyrimidine-2-yl)imidazo[1,2-a]pyridines” (Bayer Pharma Aktiengesellschaft, priority 2014, dated 2017)
pIC50: −log10 of the molar value. Where a name gives a salt, the structure may show the parent alone.

What was measured:
[1] = molecular target: T1, recombinant guanylate cyclase reporter cell line (Rattus norvegicus, UniProt P19686+P20595); assay: Effect on a recombinant guanylate cyclase reporter cell line (B-2); type: cell-based; details: MEC = minimum effective concentration, in some cases mean values for individual determinations
T1 construct: expressed in transfected cells
T1 sequence (P19686 1-690): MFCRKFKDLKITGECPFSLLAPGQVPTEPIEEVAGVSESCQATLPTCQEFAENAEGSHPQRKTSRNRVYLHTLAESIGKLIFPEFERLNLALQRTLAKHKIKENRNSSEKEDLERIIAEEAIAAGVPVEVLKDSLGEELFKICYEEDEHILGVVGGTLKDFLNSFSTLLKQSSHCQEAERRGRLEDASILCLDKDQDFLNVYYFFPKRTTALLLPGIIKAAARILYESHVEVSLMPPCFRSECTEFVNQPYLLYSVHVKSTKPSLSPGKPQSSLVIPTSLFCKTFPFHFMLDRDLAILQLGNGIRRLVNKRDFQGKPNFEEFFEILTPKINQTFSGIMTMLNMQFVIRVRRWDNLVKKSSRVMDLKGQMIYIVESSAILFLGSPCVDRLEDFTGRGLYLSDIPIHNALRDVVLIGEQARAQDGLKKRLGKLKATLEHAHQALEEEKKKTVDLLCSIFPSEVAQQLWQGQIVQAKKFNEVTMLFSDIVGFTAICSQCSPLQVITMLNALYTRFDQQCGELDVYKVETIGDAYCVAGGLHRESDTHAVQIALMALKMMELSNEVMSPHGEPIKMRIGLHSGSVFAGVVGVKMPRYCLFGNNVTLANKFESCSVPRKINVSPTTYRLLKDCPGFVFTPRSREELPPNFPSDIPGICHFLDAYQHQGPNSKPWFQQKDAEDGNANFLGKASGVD
T1 sequence (P20595 1-619): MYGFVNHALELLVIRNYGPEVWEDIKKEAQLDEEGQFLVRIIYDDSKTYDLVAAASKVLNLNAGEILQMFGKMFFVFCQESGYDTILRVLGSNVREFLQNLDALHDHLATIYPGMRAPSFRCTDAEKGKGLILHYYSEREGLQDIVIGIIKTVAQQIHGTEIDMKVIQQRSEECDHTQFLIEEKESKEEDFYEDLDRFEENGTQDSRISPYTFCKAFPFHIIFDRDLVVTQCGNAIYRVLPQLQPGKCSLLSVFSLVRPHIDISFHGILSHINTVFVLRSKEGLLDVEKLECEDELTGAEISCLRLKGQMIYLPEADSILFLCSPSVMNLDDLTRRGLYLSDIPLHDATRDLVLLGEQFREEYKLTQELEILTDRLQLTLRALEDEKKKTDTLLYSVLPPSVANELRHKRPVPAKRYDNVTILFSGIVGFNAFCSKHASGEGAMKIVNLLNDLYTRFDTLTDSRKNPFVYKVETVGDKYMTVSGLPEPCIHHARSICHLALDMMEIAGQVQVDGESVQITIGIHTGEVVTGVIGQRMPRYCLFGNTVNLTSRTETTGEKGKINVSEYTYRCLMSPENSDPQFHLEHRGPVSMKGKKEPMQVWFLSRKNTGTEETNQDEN
Summary of the method: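 Cellular guanylate cyclase activity measured in a recombinant reporter cell line expressing rat soluble guanylate cyclase subunits. Values are minimum effective concentrations (MEC), some as means of individual determinations.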

[2] = molecular target: T2, human phosphodiesterase 5 (PDE 5) (Homo sapiens, UniProt O76074); assay: Inhibition of human phosphodiesterase 5 (PDE 5) (B-3); type: biochemical; details: PDE 5 preparation from human platelets; [8-3H] cGMP substrate, SPA; in some cases means of individual determinations
T2 construct: PDE 5 preparations are obtained from human platelets by disruption; from tissue; host or cells: human platelets (Mono Q ion exchange fractions with PDE 5 activity)
Summary of the method: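 Enzyme partially purified from human platelets by Mono Q ion exchange; [8-3H]cGMP substrate (0.025 μCi), Tris-HCl pH 7.5 with MgCl2/EDTA, <70% conversion, 60 min at room temperature. Compounds tested at 4 to 0.0018 μM final; yttrium SPA bead read-out, IC50 from concentration–% inhibition plot.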

Row | Structure (SMILES) | MEC [1] [µM] | pIC50 [2]
1 | Cc1nc2c(OCc3c(F)ccc(F)c3F)cccn2c1-c1nc2c(c(N3CCC(CC(=O)O)CC3)n1)C(C)(C)C(=O)N2 [Example 38, [1-(5,5-dimethyl-2-{2-methyl-8-[(2,3,6-trifluorobenzyl)oxy]imidazo[1,2-a]pyridin-3-yl}-6-oxo-6,7-dihydro-5H-pyrrolo[2,3-d]pyrimidin-4-yl)piperidin-4-yl]acetic acid] | 3 | 7.44
2 | Cc1nc2c(OCc3c(F)cccc3F)cccn2c1-c1nc(NCC2(N)CC2)c2c(n1)NC(=O)C2(C)C [Example 42, 4-{[(1-Aminocyclopropyl)methyl]amino}-2-{8-[(2,6-difluorobenzyl)oxy]-2-methylimidazo[1,2-a]pyridin-3-yl}-5,5-dimethyl-5,7-dihydro-6H-pyrrolo[2,3-d]pyrimidin-6-one] | 0.1 | 8.22
3 | Cc1nc2c(OCc3c(F)cccc3F)cccn2c1-c1nc2c(c(-n3cc(O)cn3)n1)C(C)(C)C(=O)N2 [Example 43, 2-{8-[(2,6-Difluorobenzyl)oxy]-2-methylimidazo[1,2-a]pyridin-3-yl}-4-(4-hydroxy-1H-pyrazol-1-yl)-5,5-dimethyl-5,7-dihydro-6H-pyrrolo[2,3-d]pyrimidin-6-one] | 3 | 8.26
4 | Cc1nc2c(OCc3c(F)cccc3F)cccn2c1-c1nc2c(c(Oc3cn[nH]c3)n1)C(C)(C)C(=O)N2 [Example 44, 2-{8-[(2,6-Difluorobenzyl)oxy]-2-methylimidazo[1,2-a]pyridin-3-yl}-5,5-dimethyl-4-(1H-pyrazol-4-yloxy)-5,7-dihydro-6H-pyrrolo[2,3-d]pyrimidin-6-one] | 1 | 8.82
5 | Cc1nc2c(OCc3c(F)ccc(F)c3F)cccn2c1-c1nc2c(c(C(N)=O)n1)C(C)(C)C(=O)N2 [Example 53, 5,5-Dimethyl-2-{2-methyl-8-[(2,3,6-trifluorobenzyl)oxy]imidazo[1,2-a]pyridin-3-yl}-6-oxo-6,7-dihydro-5H-pyrrolo[2,3-d]pyrimidine-4-carboxamide] | 0.3 | 8.37
6 | Cc1nc2c(OCc3c(F)ccc(F)c3F)cccn2c1-c1nc2c(c(C(=O)O)n1)C(C)(C)C(=O)N2 [Example 54, 5,5-Dimethyl-2-{2-methyl-8-[(2,3,6-trifluorobenzyl)oxy]imidazo[1,2-a]pyridin-3-yl}-6-oxo-6,7-dihydro-5H-pyrrolo[2,3-d]pyrimidine-4-carboxylic acid] | 10 | 6.38
7 | Cc1nc2c(OCc3c(F)cccc3F)cccn2c1-c1nc2c(c(C(=O)NCC(C)(C)O)n1)C(C)(C)C(=O)N2 [Example 56, 2-{8-[(2,6-difluorobenzyl)oxy]-2-methylimidazo[1,2-a]pyridin-3-yl}-N-(2-hydroxy-2-methylpropyl)-5,5-dimethyl-6-oxo-6,7-dihydro-5H-pyrrolo[2,3-d]pyrimidine-4-carboxamide] | 0.3 | 8.89
8 | Cc1nc2c(OCc3c(F)ccc(F)c3F)cccn2c1-c1nc2c(c(C(=O)NCC(C)(C)N)n1)C(C)(C)C(=O)N2 [Example 58, N-(2-amino-2-methylpropyl)-5,5-dimethyl-2-{2-methyl-8-[(2,3,6-trifluorobenzyl)oxy]imidazo[1,2-a]pyridin-3-yl}-6-oxo-6,7-dihydro-5H-pyrrolo[2,3-d]pyrimidin-4-carboxamide trifluoroacetate] | 3 | 8.28
9 | Cc1nc2c(OCc3c(F)ccc(F)c3F)cccn2c1-c1nc2c(c(C(=O)NCCC(F)(F)F)n1)C(C)(C)C(=O)N2 [Example 59, 5,5-dimethyl-2-{2-methyl-8-[(2,3,6-trifluorobenzyl)oxy]imidazo[1,2-a]pyridin-3-yl}-6-oxo-N-(3,3,3-trifluoropropyl)-6,7-dihydro-5H-pyrrolo[2,3-d]pyrimidine-4-carboxamide] | 0.3 | 8.77
10 | Cc1nc2c(OCc3c(F)ccc(F)c3F)cccn2c1-c1nc2c(c(C(=O)N3CCN(C)CC3)n1)C(C)(C)C(=O)N2 [Example 60, 5,5-dimethyl-4-[(4-methylpiperazin-1-yl)carbonyl]-2-{2-methyl-8-[(2,3,6-trifluorobenzyl)oxy]imidazo[1,2-a]pyridin-3-yl}-5,7-dihydro-6H-pyrrolo[2,3-d]pyrimidin-6-one trifluoroacetate] | 3 | 6.38
11 | Cc1nc2c(OCc3c(F)ccc(F)c3F)cccn2c1-c1nc2c(c(C(=O)N3CCNCC3)n1)C(C)(C)C(=O)N2 [Example 64, 5,5-dimethyl-2-{2-methyl-8-[(2,3,6-trifluorobenzyl)oxy]imidazo[1,2-a]pyridin-3-yl}-4-(piperazin-1-ylcarbonyl)-5,7-dihydro-6H-pyrrolo[2,3-d]pyrimidin-6-one trifluoroacetate] | 10 | 7.55
12 | Cc1nc2c(OCc3c(F)cccc3F)cccn2c1-c1nc(CNS(C)(=O)=O)c2c(n1)NC(=O)C2(C)C [Example 65, N-[(2-{8-[(2,6-Difluorobenzyl)oxy]-2-methylimidazo[1,2-a]pyridin-3-yl}-5,5-dimethyl-6-oxo-6,7-dihydro-5H-pyrrolo[2,3-d]pyrimidin-4-yl)methyl]methanesulphonamide] | 3 | 7.17

The next lines start with the values.

Row | MEC [1] [µM] | pIC50 [2] | Structure (SMILES)
13 | 1 | 7.68 | Cc1nc2c(OCc3c(F)cccc3F)cccn2c1-c1nc2c(c(N3CCC[C@@H]3CO)n1)C(C)(C)C(=O)N2 [Example 37, 2-{8-[(2,6-difluorobenzyl)oxy]-2-methylimidazo[1,2-a]pyridin-3-yl}-4-[(2R)-2-(hydroxymethyl)pyrrolidin-1-yl]-5,5-dimethyl-5,7-dihydro-6H-pyrrolo[2,3-d]pyrimidin-6-one]
14 | 1 | 6.72 | Cc1nc2c(OCc3c(F)cccc3F)cccn2c1-c1nc(C#N)c2c(n1)NC(=O)C2(C)C [Example 48, 2-{8-[(2,6-Difluorobenzyl)oxy]-2-methylimidazo[1,2-a]pyridin-3-yl}-5,5-dimethyl-6-oxo-6,7-dihydro-5H-pyrrolo[2,3-d]pyrimidine-4-carbonitrile]
15 | 1 | 7.32 | Cc1nc2c(OCc3c(F)cccc3F)cccn2c1-c1nc(CN)c2c(n1)NC(=O)C2(C)C [Example 49, 4-(Aminomethyl)-2-{8-[(2,6-difluorobenzyl)oxy]-2-methylimidazo[1,2-a]pyridin-3-yl}-5,5-dimethyl-5,7-dihydro-6H-pyrrolo[2,3-d]pyrimidin-6-one]
16 | 0.3 | 7.54 | Cc1nc2c(OCc3c(F)cccc3F)cccn2c1-c1nc2c(c(C(N)=O)n1)C(C)(C)C(=O)N2 [Example 50, 2-{8-[(2,6-Difluorobenzyl)oxy]-2-methylimidazo[1,2-a]pyridin-3-yl}-5,5-dimethyl-6-oxo-6,7-dihydro-5H-pyrrolo[2,3-d]pyrimidine-4-carboxamide hydrochloride]
17 | 10 | 6.37 | Cc1nc2c(OCc3c(F)cccc3F)cccn2c1-c1nc2c(c(C(=O)O)n1)C(C)(C)C(=O)N2 [Example 51, 2-{8-[(2,6-Difluorobenzyl)oxy]-2-methylimidazo[1,2-a]pyridin-3-yl}-5,5-dimethyl-6-oxo-6,7-dihydro-5H-pyrrolo[2,3-d]pyrimidine-4-carboxylic acid]
18 | 0.3 | 8.40 | Cc1nc2c(OCc3c(F)cccc3F)cccn2c1-c1nc2c(c(C(=O)NC3CC3)n1)C(C)(C)C(=O)N2 [Example 55, N-Cyclopropyl-2-{8-[(2,6-difluorobenzyl)oxy]-2-methylimidazo[1,2-a]pyridin-3-yl}-5,5-dimethyl-6-oxo-6,7-dihydro-5H-pyrrolo[2,3-d]pyrimidine-4-carboxamide]
